Test results: patent US12151018B2 (priority 2019, dated 2024)

System: Caenorhabditis elegans
Settings: in vivo

argireline
amount needed alone for the same level of effect as argireline 100 ppm plus Z. piperitum extract 500 ppm: 100,000 ppm
